Test [1] deals with T1, Galectin-3 (Homo sapiens, UniProt P17931). As to the kind of experiment: Inhibition of recombinant galectin 3 in human O type red blood cells by hemagglutinination assay relative to galactose.
In test [2] the target is T1, Galectin-3. The test can be described thus: Inhibition of recombinant galectin 3 in human O type red blood cells by hemagglutinination assay relative to lactose.
Test [3] deals with T2, Galectin-1 (Homo sapiens, UniProt P09382). As to the kind of experiment: Inhibition of recombinant galectin 1 in human O type red blood cells by hemagglutinination assay relative to lactose.
Test [4] deals with T2, Galectin-1. The test can be described thus: Inhibition of recombinant galectin 1 in human O type red blood cells by hemagglutinination assay relative to galactose.
Test [5] addresses T1, Galectin-3. As to the kind of experiment: Binding affinity to galectin 3.
The target of test [6] is T2, Galectin-1. The test can be described thus: Binding affinity to galectin 1.
In test [7] the target is T1, Galectin-3. The test can be described thus: Inhibition of galectin 3.

T1 sequence (P17931 whole entry): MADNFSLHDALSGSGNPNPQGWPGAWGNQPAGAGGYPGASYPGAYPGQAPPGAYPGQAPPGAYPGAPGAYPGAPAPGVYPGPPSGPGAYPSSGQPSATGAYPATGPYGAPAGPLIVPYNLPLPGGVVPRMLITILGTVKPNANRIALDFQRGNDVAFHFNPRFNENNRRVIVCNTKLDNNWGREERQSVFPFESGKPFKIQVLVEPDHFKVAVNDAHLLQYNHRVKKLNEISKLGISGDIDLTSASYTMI
T2 sequence (P09382 whole entry): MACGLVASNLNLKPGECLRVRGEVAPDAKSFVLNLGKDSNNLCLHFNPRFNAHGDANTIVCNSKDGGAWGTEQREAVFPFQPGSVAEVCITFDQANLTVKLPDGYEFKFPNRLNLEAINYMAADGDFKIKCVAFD

Turning to `OC[C@@H]1O[C@H](O[C@@H]2[C@@H](O)[C@H](O)[C@@H](n3cc(CS[C@@H]4O[C@H](CO)[C@@H](O[C@@H]5O[C@H](CO)[C@H](O)[C@H](O)[C@H]5O)[C@H](O)[C@H]4O)nn3)O[C@H]2CO)[C@@H](O)[C@H](O)[C@@H]1O`, the Activity in test [1] worked out at 5; in test [2], 2.5; in test [3], 1.3; in test [4], 2.6.

For the compound `C=C(C[C@@H]1O[C@H](CO)[C@H](O)[C@H](O)[C@H]1O)c1cccc([N+](=O)[O-])c1`, the results for the Activity in test [1] and in test [4] were below 10 and 10, respectively.

Regarding `CO[C@@H]1O[C@H](CO)[C@@H](O[C@@H]2O[C@H](CO)[C@H](O)[C@H](NC(=O)c3cc4ccccc4cc3C(=O)O)[C@H]2O)[C@H](O)[C@H]1NC(C)=O`, the Kd in test [5] is 0.3 µM.

As for `COC(=O)Cn1cc(C[C@@H]2O[C@H](CO)[C@H](O)[C@H](O)[C@H]2O)nn1` [TRIAZOLYL GALACTOSIDE], binding in test [6] was characterised by a dissociation constant (Kd) of 5000 µM.

Consider `OC[C@@H]1O[C@H](n2cc(CS[C@@H]3O[C@H](CO)[C@@H](O[C@@H]4O[C@H](CO)[C@H](O)[C@H](O)[C@H]4O)[C@H](O)[C@H]3O)nn2)[C@@H](O)[C@H](O)[C@@H]1O`, for which the Activity in test [1] was 2.6; in test [2], 1.3; in test [3] it was 0.7; in test [4] it was 1.3.

On to LACTOSE, ANHYDROUS, for which the Activity in test [1] and in test [4] was 1 each time.

As for `C#CCS[C@@H]1O[C@H](CO)[C@@H](O[C@@H]2O[C@H](CO)[C@H](O)[C@H](O)[C@H]2O)[C@H](O)[C@H]1O`, the Activity in test [1] came out at 2.6; in test [4], 1.3.

On to `C/C=C/[C@@H]1O[C@H](CO)[C@H](O)[C@H](O)[C@H]1O`, for which the Activity in test [1] and in test [4] was below 10 each time.

Consider `OC[C@H]1O[C@@H](C/C=C/c2cccc(/C=C/C[C@@H]3O[C@H](CO)[C@H](O)[C@H](O)[C@H]3O)c2)[C@H](O)[C@@H](O)[C@H]1O`, for which the Activity in test [1] is below 10; in test [3] it was 5; in test [4], 10.

Regarding `C#CCS[C@@H]1O[C@H](CO)[C@H](O)[C@H](O)[C@H]1O`, the Activity in test [1] was 20; in test [4] it was below 10.

Regarding `O=C(N[C@@H]1[C@H](O)[C@H](CO)O[C@H](S[C@@H]2O[C@H](CO)[C@H](O)[C@H](NC(=O)c3ccc([N+](=O)[O-])cc3)[C@H]2O)[C@H]1O)c1ccc([N+](=O)[O-])cc1`, the Kd in test [5] amounted to 0.033 µM.

`COC(=O)/C=C(\C[C@@H]1O[C@H](CO)[C@H](O)[C@H](O)[C@H]1O)c1ccccc1`: the Activity in test [1] is below 10; in test [4], 160.

The compound `OC[C@@H]1O[C@H](O[C@@H]2[C@@H](O)[C@H](O)[C@@H](OCCCCCCO[C@@H]3O[C@H](CO)[C@@H](O[C@@H]4O[C@H](CO)[C@H](O)[C@H](O)[C@H]4O)[C@H](O)[C@H]3O)O[C@H]2CO)[C@@H](O)[C@H](O)[C@@H]1O` displayed an IC50 in test [7] of 163 µM.

With `O=S(=O)(c1ccc2ccccc2c1)[C@@H]1O[C@H](CO)[C@@H](O[C@@H]2O[C@H](CO)[C@H](O)[C@H](O)[C@H]2O)[C@H](O)[C@H]1O`, the Kd in test [5] came out at 313 µM; in test [6] it was 40 µM.

For `OC[C@@H]1O[C@H](n2cc(CS[C@@H]3O[C@H](CO)[C@H](O)[C@H](O)[C@H]3O)nn2)[C@@H](O)[C@H](O)[C@@H]1O`, the Activity in test [1] was 20; in test [2] it was 10; in test [4], below 10.

Consider `CC(=O)C[C@@H]1O[C@H](CO)[C@H](O)[C@H](O)[C@H]1O`, for which the values for the Activity in test [1] and in test [4] were 10 and below 10, respectively.

With `OC[C@@H]1O[C@H](O[C@@H]2[C@@H](O)[C@H](O)[C@@H](n3cc(CS[C@@H]4O[C@H](CO)[C@H](O)[C@H](O)[C@H]4O)nn3)O[C@H]2CO)[C@@H](O)[C@H](O)[C@@H]1O`, the Activity in test [1] was found to be 1.3; in test [2] it was 0.7; in test [3] it was 1.3; in test [4], 2.6.

For `OC[C@@H]1O[C@H](SCC#CC#CCS[C@@H]2O[C@H](CO)[C@H](O)[C@H](O)[C@H]2O)[C@@H](O)[C@@H](O)[C@@H]1O`, the values for the Activity in test [1], in test [3] and in test [4] were below 10, 5 and 10, respectively.

For `OC[C@@H]1O[C@H](O[C@@H]2[C@@H](O)[C@H](O)[C@@H](SCC#CC#CCS[C@@H]3O[C@H](CO)[C@@H](O[C@@H]4O[C@H](CO)[C@H](O)[C@H](O)[C@H]4O)[C@H](O)[C@H]3O)O[C@H]2CO)[C@@H](O)[C@H](O)[C@@H]1O`, the Activity in test [1] was 5; in test [2] it was 2.5; in test [3], 1.3; in test [4], 2.6.

For the compound `C=C(C[C@@H]1O[C@H](CO)[C@H](O)[C@H](O)[C@H]1O)c1ccc(OC)cc1`, the Activity is 10 in test [1] and below 10 in test [4].

For the compound `OC[C@@H]1O[C@H](SCC#Cc2ccc(C#CCS[C@@H]3O[C@H](CO)C(O)[C@H](O)[C@H]3O)cc2)[C@@H](O)[C@H](O)[C@@H]1O` (single isomer, unassigned), the results for the Activity in test [1], in test [3] and in test [4] were below 10, 10 and 20, respectively.

For `O=C[C@H](O)[C@@H](O)[C@@H](O)[C@H](O)CO`, the Activity in test [1] and in test [4] was 1 throughout.

Consider `CO[C@@H]1O[C@H](CO)[C@@H](O[C@@H]2O[C@H](CO)[C@H](O)[C@H](O)[C@H]2O)[C@H](O)[C@H]1NC(C)=O`, for which, in test [5], the Activity was 67 µM.

With `OC[C@H]1O[C@@H](C/C=C/c2ccccc2)[C@H](O)[C@@H](O)[C@H]1O`, the Activity in test [1] and in test [4] was below 10 in each case.

Compound `CO[C@@H]1O[C@H](CO)[C@@H](O[C@@H]2O[C@H](CO)[C@H](O)[C@H](O)[C@H]2O)[C@H](O)[C@H]1O` yielded an Activity in test [5] of 220 µM.

For `COC(=O)/C=C/C[C@@H]1O[C@H](CO)[C@H](O)[C@H](O)[C@H]1O`, the Activity in test [1] and in test [4] was 10 each time.

For the origin of these results see ChEMBL document CHEMBL1156608, “Synthesis of stable and selective inhibitors of human galectins-1 and -3” (Bioorg Med Chem, 2008).
